Six compounds from PubChem BioAssay (NCI) can be followed below.

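1) Cells in 96-well plates. 2) Compound, 48 h, 5 concentrations. 3) Linear interpolation between surrounding doses. 4) Unreached endpoint = highest concentration. The concentration for 50% growth inhibition is given as GI50. Definition used: TGI = concentration required for complete inhibition of growth.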

Some test systems named below: RXF 393 renal; SK-MEL-5 melanoma; SF-539 CNS; HCC-2998 colon; TK-10 renal; UACC-62 melanoma; A549 NSCLC; K-562 leukemia; HS 578T breast; NCI/ADR-RES ovarian.
Holding throughout (test): NCI tumour cell line growth inhibition, 48 h

In the case of `O=C1CCC(c2ccccc2)=NN1c1nsc2ccccc12`, the TGI with RXF 393 renal, in the experiment on SK-MEL-5 melanoma, in the experiment on SF-539 CNS, with HCC-2998 colon, with TK-10 renal and in the experiment with UACC-62 melanoma was greater than 100 µM in each case. Further, the TGI in the experiment with A549 NSCLC and in the experiment with K-562 leukemia was greater than 100 µM throughout.
Take `O=C1CC2(CCC(O)(c3ccc4ccccc4c3)C(C(=O)c3ccc4ccccc4c3)C2)C(=O)c2ccccc2N1` (stereo not given): the TGI in the experiment with RXF 393 renal, with HS 578T breast, in the experiment on SK-MEL-5 melanoma, in the experiment with SF-539 CNS, in the experiment on HCC-2998 colon and with NCI/ADR-RES ovarian was greater than 100 µM in each case. Also, the TGI with TK-10 renal, with UACC-62 melanoma, in the experiment with A549 NSCLC and in the experiment on K-562 leukemia was greater than 100 µM each time.
Regarding `COc1cnc2c(c1)C(=O)c1c-2n(CCCN2CCOCC2)c(=O)c2cc(Cl)ccc12`, the GI50 in the experiment on RXF 393 renal is 0.332 µM; with HS 578T breast it was 24.9 µM; in the experiment with SF-539 CNS, 0.23 µM; with HCC-2998 colon it was greater than 100 µM; in the experiment on NCI/ADR-RES ovarian it was 0.259 µM; in the experiment with TK-10 renal it was greater than 100 µM. The GI50 in the experiment on UACC-62 melanoma was 0.187 µM; with K-562 leukemia, 0.525 µM. Also, the TGI with RXF 393 renal is 28 µM; in the experiment on HS 578T breast, greater than 100 µM; in the experiment with SF-539 CNS, 0.65 µM; with HCC-2998 colon, greater than 100 µM; in the experiment on NCI/ADR-RES ovarian, greater than 100 µM; in the experiment with TK-10 renal it was greater than 100 µM. Also, the TGI in the experiment on UACC-62 melanoma and in the experiment on K-562 leukemia was greater than 100 µM in each case.
On to `COc1cccc(N2C(Cl)C(=O)C2c2c[nH]c3ccccc23)c1` (stereo not given), for which the TGI in the experiment with RXF 393 renal, in the experiment on SK-MEL-5 melanoma, in the experiment on TK-10 renal, in the experiment on UACC-62 melanoma, in the experiment on A549 NSCLC and with K-562 leukemia was greater than 100 µM each time.
As to `Nc1ncc(-c2ccc3ncnc(Nc4ccc(F)c(Cl)c4)c3c2)cn1`, the GI50 in the experiment on RXF 393 renal was 0.932 µM; with HS 578T breast, 1.19 µM; in the experiment on SK-MEL-5 melanoma it was 2.84 µM; with SF-539 CNS it was 1.52 µM; in the experiment on HCC-2998 colon it was 22.2 µM; in the experiment with NCI/ADR-RES ovarian, 3.8 µM. Besides, the GI50 is 0.132 µM in the experiment with TK-10 renal, 4.99 µM with UACC-62 melanoma, 1.95 µM with A549 NSCLC and 3.25 µM in the experiment on K-562 leukemia. Besides, the TGI with RXF 393 renal is 3.5 µM; in the experiment on HS 578T breast, 3.52 µM; with SK-MEL-5 melanoma it was 9.69 µM; with SF-539 CNS, 2.93 µM; in the experiment on HCC-2998 colon it was greater than 100 µM; with NCI/ADR-RES ovarian, 46.2 µM. The TGI in the experiment with TK-10 renal was 1.42 µM; with UACC-62 melanoma, 39.9 µM; in the experiment with A549 NSCLC, 8.25 µM; in the experiment on K-562 leukemia, greater than 100 µM.
`O=c1oc2cc(O)ccc2c(O)c1C(c1ccccc1)c1c(O)c2ccc(O)cc2oc1=O`: the TGI in the experiment with RXF 393 renal, in the experiment on HS 578T breast, in the experiment with SK-MEL-5 melanoma, in the experiment with SF-539 CNS, in the experiment with HCC-2998 colon and in the experiment on NCI/ADR-RES ovarian was greater than 100 µM in each case. The TGI in the experiment on TK-10 renal, with UACC-62 melanoma, in the experiment on A549 NSCLC and with K-562 leukemia was greater than 100 µM in each case.
